# Source: patent publication US10822317B2, “Methods and compositions for wound healing” (QBiotics Limited, priority 2013, dated 2020)
# Assays:
# [1] = tested on: human neonatal fibroblasts; assay: Scratch closure, human neonatal fibroblasts, Method 3 (IncuCyte); assay type: cell-based
# Protocol: (§1) The ability of early. passage neonatal foreskin fibroblasts (NFF) cultured in RPMI 1640-10% foetal calf serum to migrate across a scratch wound made in a confluent monolayer following treatment with purified compounds or plant extracts was determined using one or more of the following three methods.
# Cells were seeded and treated in 96-well plates as in Method 2 (5 replicate wells per dilution), except that the scratches were made in one action with a tool having 96, 1 mm thick teflon coated pins (Essen Bioscience Woundmaker). The plate was then placed in a 37° C., 5% CO2 humidified atmosphere in an IncuCyte FLR instrument programmed to photograph each well under phase contrast at 3 hr intervals for 42 hours. The software determined the initial scratch boundaries and their rate of closure. Accelerated wound closure was considered to be significant if the initial rate of closure was >10% of the untreated controls.
# [2] = tested on: human peripheral blood monocytes; assay: Differentiation of monocytes into macrophages; assay type: cell-based; settings: 10-fold dilutions; 4 days; adherence and morphology
# Protocol: To determine potential effects of Compound 1 and fifteen other epoxy-tigliane compounds in the array on monocyte differentiation, human peripheral blood mononuclear cells (PBMCs) were isolated by Ficoll-Paque sedimentation of heparinised blood from a human donor, and plated at 100,000 cells/well in RPMI-1640 10% FCS. Duplicate wells were treated with 10-fold dilutions of the compounds and incubated at 37° C. for 4 days. The wells were scored visually for cell attachment and morphology, then washed twice with PBS, stained with sulfurhodamine and the incorporate stain quantitated in an ELISA reader. The plates were then washed with water and stained with 1% crystal violet in methanol for photography and scoring of adherent cell morphology.
# [3] = tested on: human neonatal fibroblasts; assay: Scratch closure, human neonatal fibroblasts, Method 1; assay type: cell-based
# Protocol: as §1
# Cells were seeded in 16-mm diameter wells (24-well plates), allowed to become confluent and 2 scratches made in each well using a sterile plastic pipette tip. The medium was removed, the wells washed with phosphate-buffered saline pH 7.2 (PBS) to remove dislodged cells, fresh medium added followed by serial 10-fold dilutions of pure compound or plant extract (2 μL). Incubation was continued for 16 to 30 hr. The experiment was terminated when the scratch edges of untreated cultures had closed approximately 25% of the initial gap. The monolayers were washed with PBS, fixed with ethanol and stained with 0.05% crystal violet. Photomicrographs of each well (EVOS microscope) were printed and each scratch measured at 3 places to determine the mean width. Accelerated wound closure-was considered to be significant if the remaining gap was <40% of the gap of the untreated controls: […]
# [4] = tested on: human neonatal fibroblasts; assay: Matrigel invasion assay for migratory ability; assay type: cell-based; settings: for Cell count as % of control (Control = no compounds added): 30 ng/mL, 24 hrs, fibroblasts starved 2 days, 1% foetal calf serum, ± standard deviation, two replicate experiments
# From the text: Matrigel invasion chambers provide cells with the conditions that allow assessment of their invasive property in vitro. The Matrigel invasion chambers consists of a cell culture companion plate with cell culture inserts containing an 8 micron pore size PET membrane with a thin layer of Matrigel Basement Membrane Matrix. The Matrigel matrix serves as a reconstituted basement membrane in vitro. The layer occludes the pores of the membrane, blocking non-invasive cells from migrating through the membrane. In contrast, invasive cells are able to detach themselves from and invade through the Matrigel matrix and the 8 micron membrane pores. The membrane may be processed for light and electron microscopy and can be easily removed after staining.
# The chambers were used according to the manufacturer's instructions, as described below in two studies, to assess the effects of Compounds 1, 2, 5 and 42 on migration of human neonatal fibroblasts. The first study assessed effects of three concentrations (0, 10 and 30 ng/mL) of Compound 1 on neonatal fibroblasts in wells containing media with 10% foetal calf serum. The second study used two concentrations (0 and 30 ng/mL) for each of Compounds 1, 2, 5 and 42 to examine effects on migration of neonatal fibroblasts starved for 2 days prior to treatment and then transferred to media with 1% foetal calf serum.
# The package containing the chambers was removed from −20° C. storage and allowed to come to room temperature. Warm (37° C.) bicarbonate based culture medium was added to the interior of the inserts (500 μL) and bottom of wells (750 μL). The chambers containing the Matrigel were allowed to rehydrate for 2 hours in humidified tissue culture incubator, 37° C., 5% CO2 atmosphere. After rehydration, the medium was carefully removed by aspiration without disturbing the layer of Matrigel™ Matrix on the membrane.
# Cells were harvested, and resuspended at 20,000 cells per mL. A total of 250 μL of the cell suspension was placed into the interior of the insert (5,000 cells). An extra 250 μL media containing the respective Compounds was then added to the interior of the insert to give the desired final concentrations for each of the two studies. A total of 750 μL of media containing appropriate concentrations of each compound in each treatment were placed in the well under the appropriate insert. The Matrigel chambers were then incubated for 24 hours in a humidified tissue culture incubator, at 37° C., 5% CO2 atmosphere.
# Non-invading cells were removed from the upper surface of the membrane by “scrubbing”. A cotton tipped swab was dipped into the insert after removal of the media, and firm pressure applied while the tip was moved over the membrane surface. The scrubbing was repeated with a second swab moistened with PBS. Cells that had invaded to the external surface of the insert were then fixed by placing in […] of 100% methanol for at least 5 mins. Inserts were then transferred to a companion plate containing 500 μL of 0.1% crystal violet in methanol, and stained for at least 15 mins. Inserts were destained by passage through 3 companion plates containing 500 μL water, before being air dried.
# The following day, the membrane was removed from the insert housing by inverting the insert and inserting the tip of a sharp scalpel blade through the membrane at the edge adjacent to the housing wall. The insert housing was rotated against the stationary blade and the membrane was released. […]
# mouse skin = assay: Acute inflammatory response in mouse skin; assay type: in vivo; settings: male nude mice, s.c. 50 μL of 100 μg/mL; for scarring of the healed site: 14 days; for diameter of affected area of skin: by 24 hr
# Protocol: Male nude mice were injected subcutaneously on each flank with 50 μL of solutions of 100 μg/mL of Compounds 1, 2, 5 and 42 respectively in 20% propylene glycol. Each site reddened within 4 hr and by 24 hr the affected area covered approximately 1 cm diameter of skin.
SMILES,% closure compared to control ([1]; 30 ng/mL),% closure compared to control ([1]; 100 ng/mL),Differentiation endpoint (endpoint concentration in dilution series for induction of macrophage phenotype) [2],% closure compared to control ([3]; 30 ng/mL),% closure compared to control ([3]; 100 ng/mL),staining pattern / growth of fibroblasts under the microscope ([3]; 24 hours post scratch),Cell count as % of control (Control = no compounds added) [4],"migratory ability in the Matrigel invasion chamber system vs vehicle alone ([4]; first study, 10 or 30 ng/mL, 10% foetal calf serum, 24 hours)",scarring of the healed site (mouse skin),diameter of affected area of skin (mouse skin)
"CC=C(C)C(=O)OC1C(C)C2(O)C(C3OC3(CO)C(O)C3(O)C(=O)C(C)=CC32)C2C(C)(C)C12OC(=O)C(C)CC (centres unmarked) [Compound 1, 12-tigloyl-13-(2-methylbutanoyl)-6,7-epoxy-4,5,9,12,13,20-hexahydroxy-1-tigliaen-3-one]",150%,160%,1 ng/mL,166%,146%,growing in a multilayered fashion,356 ± 141%,increased migratory ability,minimal scarring,approximately 1 cm
"CCC(C)C(=O)OC1C(C)C2(O)C(C3OC3(CO)C(O)C3(O)C(=O)C(C)=CC32)C2C(C)(C)C12OC(=O)C(C)CC (centres unmarked) [Compound 2, 12,13-di-(2-methylbutanoyl)-6,7-epoxy-4,5,9,12,13,20-hexahydroxy-1-tigliaen-3-one]",147%,,1 ng/mL,130%,129%,,366 ± 122%,,minimal scarring,approximately 1 cm
